From ChEMBL document CHEMBL4130428, “Recent advances in polysaccharides for osteoarthritis therapy” (2017) come the findings set out here.

Test [1] relates to Homo sapiens. The test is described as follows: Anti-osteoarthritis activity in knee osteoarthritis patient assessed as cartilage volume in medial area dosed orally for 2 consecutive years by MRI method relative to control. The class given is functional.
Test [2] relates to Homo sapiens. The test is described as follows: Anti-osteoarthritis activity in knee osteoarthritis patient assessed as cartilage volume in medial condylar area dosed orally for 2 consecutive years by MRI method relative to control. It is filed as functional.

Consider `Cc1ccc(-c2cc(C(F)(F)F)nn2-c2ccc(S(N)(=O)=O)cc2)cc1` [CELECOXIB], for which the figures for the “inhibition (INH)” value in test [1] and in test [2] were 8.1% and 7.7%, respectively.
